In patent publication US4049495A, “Physiologically active substances and fermentative process for producing the same” (Sankyo Company Limited, priority 1974, dated 1977):
Values after ≈ are worked out from the molar mass of the structure shown.

Legend:
cholesterol biosynthesis = test: inhibition of cholesterol biosynthesis in vitro (rat liver slice, radioactive acetic acid); format: cell-based; details: 1 h, 37° C., 60 minutes, read-out: concentration exhibiting about 50% inhibition of cholesterol biosynthesis
Procedure: I. The activity in vitro on inhibition of cholesterol biosynthesis of the substances ML-236 may be assayed by the following method. Slice of rat liver and radioactive acetic acid are brought to interaction at 37° C. for 60 minutes, the radioactive cholesterol thus biosynthesized is saponified and separated as precipitates with digitonin and then its radioactivity is measured to determine the produced cholesterol amount. Separately, the same procedures as above are employed except that ML-236 is added at the beginning of the reaction, thereby the biosynthesized cholesterol amount being determined. Thus, an effect of ML-236 can be quantitively determined. (See Bricker et al.: The Journal of Biological Chemistry, 247, 4914, 1972).

[1] = solubility in organic solvents; format: physicochemical
[2] = system: cholesterol and neutral lipid levels in blood serum; test: lowering of cholesterol and neutral lipid in blood serum of rats, oral ML-236A in gum arabic; format: in vivo; details: 5 mg./kg. in gum arabic, vs gum arabic alone
Procedure: 2. Two of four groups of rats, each group consisting of 5 animals, were orally given one dose of 5 mg./kg. of ML-236A suspended in gum arabic. After 3 hours and 18 hours from administration, animals were sacrificed by bleeding and blood was collected. Cholesterol and neutral lipid levels in blood serum were determined by a conventional method.

[3] = system: cholesterol and neutral lipid levels in blood serum; test: lowering of cholesterol and neutral lipid in blood serum of rats, oral ML-236B in physiological saline; format: in vivo; details: 80 mg./kg. powdery in physiological saline solution, vs saline
Procedure: Moreover, one of two other groups of rats, each group consisting of 5 animals, were orally given 80 mg./kg. of powdery ML-236B in the form of a physiological saline solution. After 3 hours from administration, cholesterol and neutral lipid levels in blood serum were determined in the same manner as above.

[4] = system: cholesterol levels in blood and liver; test: lowering of cholesterol in blood and liver of Triton WR 1339-treated rats; format: in vivo; details: 20 mg./kg. intraperitoneal, with Triton WR 1339 200 mg./kg. i.v., 24 hours, vs Triton alone
Procedure: 1. One of two groups of rats having an average weight of about 200 g., each group consisting of 5 animals, was individually given by intraveneous injection with 200 mg./kg. of Triton WR 1339 (trade name; available from Ruger Chemical Co., Ltd., U.S.A.; having an activity of increasing cholesterol level in blood) simultaneously with intraperitoneal administration of 20 mg./kg. of ML-236B. After 24 hours from administration, rats were sacrificed by bleeding, blood and liver were collected and their cholesterol and neutral lipid levels were determined by a conventional method.

[5] = in methanol, ethanol, acetone, ethyl acetate, chloroform and benzene
[6] = in n-hexane and petroleum ether

Compound	IC50 (cholesterol biosynthesis) [µg/mL]	Solubility [1, 5]	Solubility [1, 6]	lowering of cholesterol level in blood serum after 3 hours ([2]; 3 hours) [%]	lowering of neutral lipid level in blood serum after 3 hours ([2]; 3 hours) [%]	lowering of cholesterol level in blood serum after 18 hours ([2]; 18 hours) [%]	lowering of neutral lipid level in blood serum after 18 hours ([2]; 18 hours)	lowering of cholesterol level in blood serum after 3 hours [3] [%]	lowering of neutral lipid level in blood serum after 3 hours [3] [%]	lowering of cholesterol level in blood [4] [%]	lowering of cholesterol level in liver [4] [%]
CC1C=CC2=CCCCC2C1CCC1CC(O)CC(=O)O1 (centres unmarked) [ML-236C]	~0.08 (≈ 0.275 µM)	Soluble	Insoluble	–	–	–	–	–	–	–	–
CC1C=CC2=CCCC(O)C2C1CCC1CC(O)CC(=O)O1 (centres unmarked) [ML-236A]	~0.04 (≈ 0.131 µM)	Soluble	Insoluble	13.5	49.5	13.5	not observed	–	–	–	–
CCC(C)C(=O)OC1CCC=C2C=CC(C)C(CCC3CC(O)CC(=O)O3)C21 (centres unmarked) [ML-236B]	~0.01 (≈ 0.0256 µM)	Soluble	Insoluble	–	–	–	–	20.0	44.2	14.2	10.1
